The text below walks through data of PMC9804781, “Identification of a Novel Pseudo‐Natural Product Type IV IDO1 Inhibitor Chemotype” (Angewandte Chemie (International Ed. in English), 2022).

For one test, the target named is T1, His-tagged IDO2 (Homo sapiens, UniProt Q6ZQW0).
T1 construct: His; purchased BPS Bioscience 72035 (kit)
T1 sequence (Q6ZQW0 1-407): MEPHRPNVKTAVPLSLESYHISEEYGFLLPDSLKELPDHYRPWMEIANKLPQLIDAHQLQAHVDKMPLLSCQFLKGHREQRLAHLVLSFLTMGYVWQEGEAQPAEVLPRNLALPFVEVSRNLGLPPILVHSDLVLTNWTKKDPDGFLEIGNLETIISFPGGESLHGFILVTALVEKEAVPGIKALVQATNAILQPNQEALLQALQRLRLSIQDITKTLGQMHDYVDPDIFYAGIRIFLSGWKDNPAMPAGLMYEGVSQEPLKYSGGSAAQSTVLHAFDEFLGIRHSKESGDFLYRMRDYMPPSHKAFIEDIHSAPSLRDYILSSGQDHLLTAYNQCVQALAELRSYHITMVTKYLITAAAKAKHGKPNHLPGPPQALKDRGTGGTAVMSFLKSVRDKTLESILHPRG
Description: IDO2 Activity Assay. It is filed as biochemical. As to conditions: 90 min + 120 min at 30 °C. On the procedure:
Inhibition of indoleamine 2,3-dioxygenase 2 (IDO2) was tested using the Universal IDO1/IDO2/TDO Inhibitor Screening Assay Kit (cat# 72035, BPS Bioscience, US). 10 µg His-tagged IDO2 in IDO2 Assay Buffer was incubated with Complete IDO2 Reaction Solution (1% (v/v) component 2 in component 1) and 50 µM Test Inhibitor (0.5% (v/v) DMSO) for 90 min at 30°C with slow shaking in the dark prior to initiation of the reaction by addition of 20% (v/v) IDO2 Substrate. Samples were incubated for 120 min at 30°C with slow shaking in the dark. Afterwards, absorbance at 321 nm was recorded on the Spark® Multimode Microplate Reader (Tecan, AT), all values were subtracted by the background and normalized to the DMSO control.

The target of a further test is T2, His-tagged TDO (Homo sapiens, UniProt P48775).
T2 construct: His; purchased BPS Bioscience 72035 (kit)
Description: TDO Activity Assay. It is filed as biochemical. As to conditions: 120 min at 37 °C. The method, then:
Inhibition of tryptophan 2,3-dioxygenase (TDO) was tested using the Universal IDO1/IDO2/TDO Inhibitor Screening Assay Kit (cat# 72035, BPS Bioscience, US). 500 ng His-tagged TDO in TDO Assay Buffer was incubated with Reaction Solution and 50 µM Test Inhibitor (0.5% (v/v) DMSO) for 120 min at 37°C with slow shaking in the dark. Afterwards, absorbance at 321 nm was recorded on the Spark® Multimode Microplate Reader (Tecan, AT), all values were subtracted by the background and normalized to the DMSO control. […]
(v/v) component 2 in component 1) and 50 µM Test Inhibitor (0.5% (v/v) DMSO) for 90 min at 30°C with slow shaking in the dark prior to initiation of the reaction by addition of 20% (v/v) IDO2 Substrate. Samples were incubated for 120 min at 30°C with slow shaking in the dark. […]

Another test deals with HeLa cells. Also noted: method as in ref 9a = [9]; 9. As to conditions: ref 9a; cited from earlier work.
The subject of the next test is hedgehog signaling. Description: Automated screen: hedgehog signaling. Type of test: cell-based. As to conditions: automated screening assay.
The next test relates to alkaline phosphatase. Description: Automated screen: alkaline phosphatase. As to conditions: automated screening assay.
Test [1] has as its system Kyn levels in BxPC-3 cells. In words: Automated (high-throughput) Kyn assay in BxPC-3 cells (Kyn sensor). Type of test: cell-based. On the procedure: Mammalian cell lines were maintained at 37°C and 5% CO2 in a humidified atmosphere and sub-cultivated twice a week. All cell lines were tested regularly for mycoplasma contamination and were always free of mycoplasma. BxPC-3 cells (DSMZ#760) were grown in RPMI-1640 medium supplemented with 10% FBS, 2 mM L-glutamine, 1 mM sodium pyruvate, 4.5 g/L glucose, 10 mM […]
HEPES and 1.5 g/L NaHCO3. […]
High-throughput Kyn assay
Automated screening for modulators of Kyn levels in BxPC-3 cells was performed as published earlier.[2] Briefly, BxPC-3 cells (1,000 cells/well) were seeded in black 1536-well plates prior to incubation for 24 h and subsequent treatment with compounds, 380 µM L-Trp and 50 ng/mL IFN-γ for 48 h. Afterwards, trichloroacetic acid was added to a final concentration of 7% (v/v), the plates were incubated for 10 min at 37°C and centrifuged for 10 min at 1620 x g. Kyn was detected by addition of 17.5 µM Kyn sensor[14] in assay buffer (excitation: 535 nm, emission: […]

For another test, the system named is Wnt signaling. Description: Automated screen: Wnt signaling. Type of test: cell-based. As to conditions: automated screening assay.
The test system of test [2] is autophagy. Description: Automated screen: autophagy induction under fed condition. Type of test: cell-based. Particulars: automated screening assay.
For a further test, the system named is glucose uptake. In words: Automated screen: glucose uptake. It is filed as cell-based. As to conditions: automated screening assay.
Test [3] concerns autophagy. Description: Automated screen: autophagy induction in the presence of chloroquine. It is filed as cell-based. Particulars: automated screening assay.
The subject of test [4] is autophagy. In words: Automated screen: autophagy inhibition in the presence of rapamycin. It is filed as cell-based. Particulars: automated screening assay.
The test system of a further test is Kyn levels in HeLa cells. In words: Manual Kyn assay in HeLa cells (p-DMAB detection). It is filed as cell-based. As to conditions: IFN-γ, L-Trp, compounds 48 h, p-DMAB, mean n=3 ±SD, read-out: Kyn Assay IC50. On the procedure: Mammalian cell lines were maintained at 37°C and 5% CO2 in a humidified atmosphere and sub-cultivated twice a week. All cell lines were tested regularly for mycoplasma contamination and were always free of mycoplasma. BxPC-3 cells (DSMZ#760) were grown in RPMI-1640 medium supplemented with 10% FBS, 2 mM L-glutamine, 1 mM sodium pyruvate, 4.5 g/L glucose, 10 mM HEPES and 1.5 g/L NaHCO3. HeLa cells (DSMZ#57) were cultivated in DMEM supplemented with 10% FBS, 4.5 g/L glucose, 4 mM L-glutamine 1 mM sodium pyruvate, 1% non-essential amino acids, 3.7 g/L NaHCO3. SKOV-3 cells (ATCC#HTB-77) were maintained in modified McCoy’s 5A medium supplemented with 10% FBS, 1.5 mM L-glutamine and 2.2 g/L NaHCO3. […]
For manual testing, BxPC-3, HeLa or SKOV-3 cells (20,000 cells/well, 5,000 cells/well or 6,250 cells/well, respectively) were seeded in 96-well plates (BxPC-3 and HeLa) or 384-well plates (SKOV-3) in medium without phenol red. After 24 h, the IDO1 pathway was induced by addition of 50 ng/mL (BxPC-3 and HeLa) or 17.6 ng/mL IFN-γ (SKOV-3) and 380 µM (BxPC-3), 164.15 µM (HeLa) or 450 µM L-Trp (SKOV-3) with simultaneous treatment with the compounds at the indicated concentrations followed by incubation for 48 h. For the hemin competition assay, hemin was added together with IFN-γ, L-Trp and the compounds. Subsequently, trichloroacetic acid was added to a final concentration of 7% (v/v), the plates were incubated for 15 min at room […]
temperature and centrifuged for 10 min at 1800 x g. Afterwards, an equal volume of freshly prepared 2% (w/v) p-DMAB in glacial acetic acid (Ehrlich reagent) was added prior to measuring the absorbance at 492 nm and 650 nm on the Spark® Multimode Microplate Reader (Tecan, AT).
To determine the Kyn levels, the absorbance of the Kyn-p-DMAB adduct A492 was subtracted by the background absorbance A650 and normalized to the DMSO control. Data analysis was performed using a non-linear regression curve fit and GraphPad Prism 9.0 (GraphPad Software, Inc, US) to generate dose-response curves and obtain IC50 values. […]
Subsequently, 10 mM ascorbic acid, 10 μM methylene blue, 2 mM L-Trp and 100 μg/mL catalase were added and samples were incubated for 60 min at room temperature or 37°C. […]

The next test concerns BMP signaling. In words: Automated screen: BMP signaling. Particulars: automated screening assay. Type of test: cell-based.
In the next test the test system is purified IDO1. Also noted: method as in ref 36b = [36]; 36. As to conditions: ref 36b; cited from earlier work.

Read-outs that look alike come from different tables or passages of the source.

T2 sequence (P48775 whole entry): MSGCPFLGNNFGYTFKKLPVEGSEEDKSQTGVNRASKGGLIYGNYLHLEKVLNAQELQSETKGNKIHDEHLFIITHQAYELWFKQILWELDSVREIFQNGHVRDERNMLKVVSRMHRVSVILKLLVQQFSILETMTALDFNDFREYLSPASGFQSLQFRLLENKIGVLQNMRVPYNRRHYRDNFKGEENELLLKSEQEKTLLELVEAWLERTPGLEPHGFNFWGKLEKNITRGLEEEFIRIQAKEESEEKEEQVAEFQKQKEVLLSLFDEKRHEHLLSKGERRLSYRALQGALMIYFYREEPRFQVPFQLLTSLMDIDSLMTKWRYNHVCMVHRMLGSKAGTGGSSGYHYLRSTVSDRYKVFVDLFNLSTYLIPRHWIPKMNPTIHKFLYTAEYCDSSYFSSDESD

Broadly, the IC50 is the concentration that inhibits the measured activity by half. Take `C[C@@H](C(=O)Nc1ccc(Cl)cc1)C1CCC(c2ccnc3ccc(F)cc23)CC1` (stereo partly shown) [BMS-986205]: the “inhibition of IDO2 (result in words)” value at His-tagged IDO2 (50 µM) was “did not inhibit”. The “inhibition of TDO (result in words)” value on His-tagged TDO (50 µM) is reported as “did not inhibit”. Besides, in the test on HeLa cells, the IC50 is 4.2 nM.

With `CCOC(=O)C1=CC[C@](C(=O)OC)(c2cc3ccccc3n2C)N(S(=O)(=O)c2ccccc2[N+](=O)[O-])[C@@H]1C(=O)OC(C)(C)C` [Compound 3b], in the test with hedgehog signaling, the “hedgehog signaling, IC50/EC50” value came out at 6330 ± 690 nM and the “hedgehog signaling, inhibition” value came out at 73.0 ± 10.0%. The “alkaline phosphatase, IC50/EC50” value with alkaline phosphatase is “inactive”. Moreover, the “effect on cellular kynurenine (Kyn) levels” value in test [1] (BxPC-3 cells stimulated with IFN-γ) is reported as “selectively decreased”. In test [1] (automated screening assay), the “kynurenine levels, IC50/EC50” value was found to be 630 ± 320 nM and the “kynurenine levels, inhibition” value was 94.0 ± 1%. Further, in the test on Wnt signaling, the “Wnt signaling, inhibition” value is recorded as 45.33 ± 1.89%. Besides, in the test on autophagy [2], the “autophagy induction under fed condition, IC50/EC50” value is “inactive” and the “autophagy induction under fed condition, inhibition” value stood at 0.33 ± 0.47%. The “glucose uptake, inhibition” value in the test with glucose uptake was 17%. Further, in the test on autophagy [3], the “autophagy induction in the presence of chloroquine, IC50/EC50” value was “inactive” and the “autophagy induction in the presence of chloroquine, inhibition” value was -3.67 ± 0.94%. For the same compound, the “autophagy inhibition in the presence of rapamycin, inhibition” value in the test with autophagy [4] is on record as 10.50 ± 9.50%. Further, the IC50 in the test on Kyn levels in HeLa cells (listed as 3b^a) came to 2440 ± 560 nM. Further, the IC50 in the test with Kyn levels in HeLa cells (listed as 3b^b) amounted to 660 ± 50 nM. The IC50 with Kyn levels in HeLa cells was 490 ± 100 nM. The “BMP signaling, inhibition” value with BMP signaling worked out at 37%.

Turning to `NS(=O)(=O)NCCNc1nonc1C(=NO)Nc1ccc(F)c(Br)c1` [epacadostat], the “reduction of IDO2 activity” value on His-tagged IDO2 (50 μM, n=3) came to 49.9±0.3%. Besides, the “reduction of TDO activity” value at His-tagged TDO (50 μM, n=3) amounted to 75.5±4.3%. In addition, in the test with purified IDO1, the IC50 is 73 nM, the “selectivity over IDO2” value is listed as > 1000 fold and the “selectivity over TDO” value was > 1000 fold.
